Source: US20140329766A1, “Prophylactic Compositions for Management of Microbial Infections in Patients with Brain Injury” (UTI LIMITED PARTNERSHIP, priority 2011, published 2014)

How the values were obtained:
post-stroke infections = assay: Bacteriological analysis (CFU) of blood, lungs, liver and spleen after MCAO; format: in vivo, mice; details: for bacterial infections at 24 h after MCAO: wild-type mice receiving propranolol or 6-OHDA (FIGS. 44A-44D)
Procedure: Mice underwent the mid-cerebral artery occlusion (MCAO) model of cerebral ischemia-reperfusion injury as previously described (Connolly, Jr. et al., 1996; Wong et al., 2008). Male mice of 8-12 weeks old were anesthetized by intraperitoneal injection of a mixture of 10 mg/kg xylazine hydrochloride (MTC Pharmaceuticals, Cambridge, ON) and 200 mg/kg ketamine hydrochloride (Rogar/STB, London, ON). Body temperature was maintained at 37° C. using a heating pad and temperature regulator with rectal probe. Mice were randomly divided into 2 groups: (i) sham-operated, and (ii) MCAO-operated. All surgical instruments were sterilized before the surgery. Before any incision, the area was swabbed with ethanol. To induce MCAO, a 10-mm incision was made on the right-hand side of the neck. Then, the common carotid artery, external carotid artery, and internal carotid artery were dissected free. The external carotid artery was further dissected distally, then coagulated and cut to serve as a stump. After applying temporary clamps at the common carotid artery and internal carotid artery, a monofilament with a silicon coating diameter of 0.21-0.23 mm (Doccol Corporation, Redlands, Calif., USA) was inserted into the stump of the external carotid artery. The monofilament then advanced a defined distance (12 mm) so that the distal end of the monofilament came to rest across the origin of the MCA. The stump of external carotid artery was tied off. The wound on the neck of the mouse was sutured and the mouse was then transferred onto a heat pad to maintain its body temperature at 37° C. After 30 mins of occlusion, the monofilament was withdrawn to allow reperfusion to occur. The animal then recovered from the anaesthesia. Rehydration of the mice was performed every 4 h with a subcutaneous injection of electrolytes and glucose. Food pellets softened with water were placed in the cage after surgery as the mice recovered, and access to water was provided. Sham-operated animals were subjected to the initial anaesthetic and neck incision only. The animals were then allowed to recover from anaesthetic. All animals were put onto a 37° C. heat pad, post-surgery, to recover from anaesthesia until euthanized.
(§1) The anaesthetized mice from Example 1 were washed with 70% ethanol under sterile conditions. Blood was collected by cardiac puncture. The lungs, liver and spleen were removed after thoracotomy and homogenized. For determination of colony forming units (CFU), 10 μl of tissue homogenate or blood was serially diluted, plated onto brain heart infusion (BHI) agar plates supplemented with 5% sheep blood (Daylnn Biologicals, Alberta, Canada), incubated at 37° C. for 18 h, and bacterial colonies were counted.
as §1, with “Example 7” for “Example 1”

[1] = format: in vivo; details: post-ischemic Cxcr6gfp/+ mice (FIG. 37)
Procedure: Body temperature was maintained at 37° C. using a heating pad and temperature regulator with rectal probe. Mice were randomly divided into 2 groups: (i) sham-operated, and (ii) MCAO-operated. All surgical instruments were sterilized before the surgery. Before any incision, the area was swabbed with ethanol. To induce MCAO, a 10-mm incision was made on the right-hand side of the neck. Then, the common carotid artery, external carotid artery, and internal carotid artery were dissected free. The external carotid artery was further dissected distally, then coagulated and cut to serve as a stump. After applying temporary clamps at the common carotid artery and internal carotid artery, a monofilament with a silicon coating diameter of 0.21-0.23 mm (Doccol Corporation, Redlands, Calif., USA) was inserted into the stump of the external carotid artery. The monofilament then advanced a defined distance (12 mm) so that the distal end of the monofilament came to rest across the origin of the MCA. The stump of external carotid artery was tied off. The wound on the neck of the mouse was sutured and the mouse was then transferred onto a heat pad to maintain its body temperature at 37° C. After 30 mins of occlusion, the monofilament was withdrawn to allow reperfusion to occur. The animal then recovered from the anaesthesia. […]

[2] = Brain infarct size after MCAO; format: in vivo, mice; details: systemic propranolol or 6-OHDA (FIG. 36)
hepatic iNKT cells = assay: Spinning disk confocal intravital microscopy of the liver: crawling behaviour of GFP+ (iNKT) cells; format: in vivo, mice; details: post-ischemic Cxcr6gfp/+ mice 24 h after MCAO; for iNKT cell phenotype (cessation of crawling) induced by MCAO: propranolol 30 mg/kg at 4 and 8 h after MCAO, 6-OHDA 250 mg/kg i.p. 3 days prior (FIGS. 32-34)
Procedure: Murine liver intravital microscopy was performed as taught by Wong et al. (1997, A minimal role for selectins in the recruitment of leukocytes into the inflamed liver microvasculature. J. Clin. Invest. 99: 2782). Briefly, the tail vein of the anesthetized mice was cannulated to administer fluorescently labeled antibodies and/or additional anesthetic as required. Body temperature was maintained at 37° C. using an infrared heat lamp. Mice were placed in a right lateral position on an adjustable microscope stage. A lateral abdominal incision along the costal margin to the midaxillary line was made to exteriorize the liver, and all exposed tissues were moistened with saline-soaked gauze to prevent dehydration.
Cells were tracked using ImageJ software version 1.45 (NIH at http://rsb.info.nih.gov/ij/). Time-lapse videos exported from Volocity were imported as .mov file, and then converted to 8-bit grayscale. Fluorescent cells were adjusted using threshold control, and noise particles less than 2.0 pixels were removed by filter. Movement of cells was measured using manual tracking, and was calculated for each track using ImageJ output spreadsheets. The cell velocity was expressed in distance (μm) per time (min). 30-40 tracks from 10 mins videos of each animal in each experimental group were analyzed.
Excised livers were prepared for in vivo microscopic observation. Briefly, the liver was placed on the pedestal of an inverted microscope and the liver surface was then covered with a small piece of saline-soaked KimWipe to hold the organ in position. The liver microvasculature was visualized using a spinning-disk confocal microscopy and images were acquired with an Olympus IX81 inverted microscope using a ×10/0.40 UplanFL N objective. The microscope was equipped with a confocal light path (WaveFx, Quorum, Guelph, ON, CA) based on a modified Yokogawa CSU-10 head (Yokogawa Electric Corporation, Tokyo, Japan). Cxcr6^gfp/+ mice were used to visualize hepatic iNKT cells. Laser excitation wavelengths (Cobolt, Stockholm, Sweden) were used in rapid succession and visualized with the appropriate long-pass filters (Semrock, Rochester, N.Y.). Typical exposure time for each excitation wavelength was 300 milli-seconds. A 512×512 pixel back-thinned electron-multiplying charge-coupled device camera (C9100-13, Hamamatsu, Bridgewater, N.J.) was used for fluorescence detection. Volocity Acquisition software (Improvision) was used to drive the confocal microscope. […] Behaviors of iNKT cells in the hepatic microvasculature were assessed.
Wildtype mice underwent the MCAO procedure as previously described in Example 1. […] The crawling behaviours of crawling GFP+ cells in livers from sham-operated control mice and post-ischemic mice were observed and quantified using the methods disclosed in Example 2.

iNKT cells [3] = assay: Localized noradrenalin superfusion on the liver of Cxcr6gfp/+ mice; format: in vivo
Procedure: Alexa Fluor 647-conjugated rat anti-mouse PECAM-1 (clone 390; 1 μl) purchased from eBioscience (San Diego, Calif., USA) was mixed with the noradrenalin (5 μg; Sigma) to enable visualization of the epicentre of noradrenalin superfusion. Using intravital spinning-disk confocal microscopy, the behavior of iNKT cells was visualized and tracked in the epicentre of, and distant from the localized noradrenalin in the livers of Cxcr6^gfp/+ mice.

iNKT cells [4] = assay: In vitro noradrenalin activation of isolated iNKT cells; format: cell-based, mice
Procedure: After gentle agitation at 37° C. for 30 min, the concentrate was passed through a 40-μm nylon filter and washed twice with ice-cold PBS (pH 7.4) and centrifuged at 400×g for 10 min. Lymphocytes were purified on a 44%/70% Percoll gradient and were negatively selected with anti-Gr-1 (RB6-8C5; eBioscience), anti-F4/80 (BM8; eBioscience), anti-CD19 (1D3; eBioscience), and anti-CD8a (53-6.7; eBioscience) microbeads and MiniMACS column (Miltenyi Biotech) to remove neutrophils, macrophages, B cells, and CD8+ cells, respectively. A pure iNKT cell population consisting of TCRf3+ and GFP+ cells were sorted. Purity of isolated iNKT cells was >95%. iNKT cells were seeded at 5×10^5 cells into plasma-coated 6 cm clear flat glass bottom dishes and allowed to settle in DMEM containing 10% FCS for 1 h. To examine noradrenalin activation of iNKT cells in vitro, iNKT cells were either pretreated with 400 μM propranolol and then treated with 200 μM noradrenalin or the iNKT cells were subjected to 200 μM noradrenalin alone. The behavior of iNKT cells was visualized and recorded with FluoView FV1000 confocal fluorescence microscope (Olympus). The recorded images were randomized and analyzed by three blinded investigators.

[5] = tested on: intracellular IFNγ and IL-10 production; assay: Intracellular cytokine analysis by flow cytometry; format: in vivo; details: post-ischemic wild-type mice treated with propranolol (FIG. 48)
Procedure: For intracellular cytokine analysis, liver single cell suspensions from sham-operated and post-ischemic Cxcr6^gfp/+ mice were stained with PerCP-conjugated anti-CD69, washed with cold FWB, resuspended in Cytofix/Cytoperm (BD Bioscience) for 30 min on ice. Samples were washed in Perm/Wash (BD Bioscience) and then stained with Alexa Fluor 450-conjugated anti-IFNγ (XMG1.2, eBioscience) and PE-conjugated anti-IL-4 (11B11, BD Pharmingen) or PE-conjugated anti-IL-10 (JESS-16E3, eBioscience).

[6] = 5 μg, liver of Cxcr6gfp/+ mice (FIGS. 38-40)

NCCc1cc(O)c(O)cc1O [Formula 6-OHDA, 6-hydroxydopamine]
bacterial infections at 24 h after MCAO (post-stroke infections): significantly reduced | Mortality at 24 h of reperfusion [1]: 50% | infarct size in post-ischemic mice [2]: did not alter | iNKT cell phenotype (cessation of crawling) induced by MCAO (hepatic iNKT cells): completely inhibited

NC[C@H](O)c1ccc(O)c(O)c1 [noradrenaline]
crawling behavior of iNKT cells in an area of liver distant from the superfusion (iNKT cells [3]; 5 μg (FIGS. 38-40)): did not alter | crawling iNKT cells in the epicenter of noradrenaline administration (iNKT cells [3]; [6]): Significantly fewer iNKT cells crawled | pirouetting iNKT cells in the epicenter of noradrenaline administration (iNKT cells [3]; [6]): more cells adopted a pirouetting phenotype | iNKT cell morphology in vitro (iNKT cells [4]; 200 μM noradrenalin alone (FIG. 41)): developed a pseudopod-protruding phenotype

CC(C)NCC(O)COc1cccc2ccccc12 (stereo not shown) [propranolol]
protection from infection (bacterial loads in peripheral blood and lungs) (post-stroke infections; post-ischemic Cd1d-/- mice (FIG. 46)): no protection | bacterial infections at 24 h after MCAO (post-stroke infections): significantly reduced | infarct size in post-ischemic mice [2]: did not alter | iNKT cell phenotype (cessation of crawling) induced by MCAO (hepatic iNKT cells): reversed | noradrenaline-induced behavioral change of iNKT cells in vitro (iNKT cells [4]; pretreatment 400 μM propranolol, then 200 μM noradrenalin (FIG. 42)): inhibited | intracellular IL-10 versus IFN-γ production [5]: reversed the preference for intracellular IL-10 production back to an intracellular IFN-γ dominant production

apyrase
iNKT cell arrest in response to MCAO (hepatic iNKT cells; treatment just prior to MCAO (FIGS. 29, 30)): no effect

B1: recombinant IL-10: Recombinant IL-10 (Cedarlane), a TH2-type cytokine (protein, UniProt P18893 19-178, looked up)
Interleukin-10: SRGQYSREDNNCTHFPVGQSHMLLELRTAFSQVKTFFQTKDQLDNILLTDSLMQDFKGYLGCQALSEMIQFYLVEVMPQAEKHGPEIKEHLNSLGEKLKTLRMRLRRCHRFLPCENKSKAVEQVKSDFNKLQDQGVYKAMNEFDIFINCIEAYMMIKMKS
stroke-induced lung infections (bacterial load in the lungs) (post-stroke infections; wild-type mice pretreated i.v. 1 h prior to MCAO, 1 μg/mouse (FIG. 22)): increased
